From publication PMC4947907, “Lupin Peptides Modulate the Protein-Protein Interaction of PCSK9 with the Low Density Lipoprotein Receptor in HepG2 Cells” (Scientific Reports, 2016)
No end group written: not given here.

Assays:
[1] = target: T1, PCSK9-LDLR interaction (recombinant His-tagged PCSK9 / recombinant LDLR-AB domain) (Homo sapiens, UniProt Q8NBP7); assay: In vitro PCSK9-LDLR binding assay (solid-phase, CycLex); conditions: synthetic peptide, absorbance 450 nm versus vehicle, average ± SEM of three independent experiments in duplicate
T1 construct: purchased CycLex Co., Nagano, Japan
Method: In vitro experiments were performed using a solid-phase binding assay between recombinant His-tagged PCSK9 and recombinant LDLR-AB domain.
The commercial assay provides a plate pre-coated with a recombinant LDLR-AB domain, which is the PCSK9 binding site. For screening direct inhibitors of the PCSK9-LDLR interaction, lupin peptides were added to the proper amount of His-tagged PCSK9 in each well coated with LDLR-AB domain. Biotinylated anti-His-tag monoclonal antibody specifically reacted with recombinant His-tagged PCSK9 trapped with LDLR-AB domain immobilized on the microplate surface. The inhibitory effects were analyzed measuring the amount of His-tagged PCSK9 on the well. In particular, the inhibitory effect, calculated as % PCSK9-LDLR binding inhibition, determines a reduction of absorbance measured at 450 nm using the Synergy H1 fluorescent plate reader from Biotek versus vehicle control. Data points represent averages ± SEM of three independent experiments in duplicate. ***p < 0.0001 **p < 0.001 versus C.
The employed assay provides a plate pre-coated with a recombinant LDLR-AB domain, which is the PCSK9 binding site. For screening, the peptides were added to proper amount of His-tagged PCSK9 in each well coated with LDLR-AB domain. Biotinylated anti-His-tag monoclonal antibody specifically reacts with recombinant His-tagged PCSK9 trapped with LDLR-AB domain immobilized on the microplate surface. […] Data points represent averages ± SEM of three independent experiments in duplicate. *p < 0.05 **P < 0.001 versus C.
P-tot peptides (1.0 and 2.5 μg/μl), T-tot peptides (0.5 and 1.0 μg/μl), P-abs (12.5 ng/μl) and T-abs peptides (16.0 ng/μl) were tested using the in vitro PCSK9-LDLR binding assay (CycLex Co., Nagano, Japan) following the manufacture instructions. […] The reaction was stopped with 2.0 N sulfuric acid and the absorbance at 450 nm was measured using the Synergy H1 fluorescent plate reader (Biotek, Bad Friedrichshall, Germany).
The absorbance at 450 nm was measured using the Synergy H1 fluorescent plate reader (Biotek, Bad Friedrichshall, Germany).

PCSK9-LDLR interaction = conditions: ref 23 (Zhang and coworkers); read-out: IC50, PCSK9-LDLR inhibition; cited from earlier work
Excerpt: P5 is thus one of the shortest peptides ever described in literature endowed with this specific activity.

Caco-2 cells = assay: Absorption in differentiated Caco-2 cells grown in two-compartment system; peptides identified/quantified in basolateral solution; type: in vitro ADME, human; conditions: Caco-2 AP to BL, 4 h
Excerpt: Lupin protein consumption provides some health benefits in the area of hypercholesterolemia prevention. Studies in animal models[31][32] and in the clinics[33][34] have shown that the protein itself is a main hypocholesterolemic agent. […] Another investigation in human Caco-2 cells has provided evidence that at least some of these peptic and tryptic peptides may be absorbed in the small intestine, since they are transferred from the apical (AP) to the basolateral (BL) compartment in differentiated Caco-2 cells grown in a two-compartment system.
Precisely, Caco-2 cells have been incubated for 4 h in the AP chamber with 500 μl of a 1.0 μg/μl solution of P-tot or T-tot peptides and, at the end of treatment, BL solutions (700 μl) have been collected and absorbed peptic and tryptic peptides identified by HPLC-Chip ESI-MS/MS[37]. The BL solutions were then dried and diluted to 100 μl to obtain the solutions P-abs and T-abs at the concentration of 0.25 and 0.32 μg/μl, respectively. Both solutions were used for the present experiments.
The peptic (P-tot) and tryptic (T-tot) hydrolyzates from lupin protein are the same used in a previous paper, in which their capability to modulate cholesterol metabolism in HepG2 cells was investigated. […]

[2] = target: recombinant His-tagged PCSK9 wild type (proprotein convertase subtilisin/kexin type 9) (human, UniProt Q8NBP7 153-692, Limits of the kit protein are not printed. Taken as secreted, autocleaved PCSK9: prodomain 31-152 non-covalently bound to mature chain 153-692, from UniProt features. His tag omitted.); assay: ELISA; CycLex in vitro PCSK9-LDLR binding assay: plate pre-coated with LDLR-AB domain; His-tagged PCSK9 added with vehicle or synthetic peptides T9 (32-320 uM) or P5 (0.001-100 uM), 2 h at room temperature; bound PCSK9 detected with biotinylated anti-His-tag antibody, absorbance at 450 nm; conditions: both partners purified
Sequence of recombinant His-tagged PCSK9 wild type (proprotein convertase subtilisin/kexin type 9) (Q8NBP7 153-692): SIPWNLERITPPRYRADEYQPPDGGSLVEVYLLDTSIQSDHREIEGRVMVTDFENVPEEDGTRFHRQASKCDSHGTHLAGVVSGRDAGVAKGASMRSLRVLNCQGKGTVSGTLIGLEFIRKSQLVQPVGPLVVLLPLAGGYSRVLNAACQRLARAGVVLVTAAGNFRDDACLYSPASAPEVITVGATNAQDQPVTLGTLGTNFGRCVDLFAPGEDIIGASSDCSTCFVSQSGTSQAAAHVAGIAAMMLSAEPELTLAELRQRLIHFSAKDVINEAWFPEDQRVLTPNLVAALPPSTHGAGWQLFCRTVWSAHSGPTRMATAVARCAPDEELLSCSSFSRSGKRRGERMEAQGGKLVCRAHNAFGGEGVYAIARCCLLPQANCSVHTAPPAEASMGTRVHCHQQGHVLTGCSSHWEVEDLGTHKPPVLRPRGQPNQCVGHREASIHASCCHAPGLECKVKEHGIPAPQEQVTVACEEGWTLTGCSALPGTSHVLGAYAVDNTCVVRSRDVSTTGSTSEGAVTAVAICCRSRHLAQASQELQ

T1 sequence (Q8NBP7 153-692): as above
T1 sequence (Q8NBP7 31-152 partner limits assumed): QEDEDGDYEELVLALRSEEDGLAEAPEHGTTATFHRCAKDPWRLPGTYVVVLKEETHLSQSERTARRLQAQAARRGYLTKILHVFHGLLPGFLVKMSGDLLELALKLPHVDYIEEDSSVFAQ

CC[C@H](C)[C@H](NC(=O)[C@@H](NC(=O)CNC(=O)[C@H](CCC(=O)O)NC(=O)[C@H](CC(=O)O)NC(=O)[C@H](CCC(N)=O)NC(=O)[C@H](Cc1c[nH]cn1)NC(=O)[C@H](CO)NC(=O)[C@H](CCC(N)=O)NC(=O)[C@H](CCC(=O)O)NC(=O)[C@H](CCC(N)=O)NC(=O)CN)C(C)C)C(=O)N[C@H](C(=O)N[C@@H](CCCNC(=N)N)C(=O)O)C(C)C [Peptide T9]
inhibition at 32 µM ([1]; 32 μM): 19 ± 8.47% | inhibition at 160 µM ([1]; 160 μM): 33 ± 5.33% | inhibition at 320 µM ([1]; […] μM): 53 ± 1.02%

Ac-TVFTSWEEYLDWV-amide [Pep2-8]
IC50 (PCSK9-LDLR interaction): 0.81 ± 0.08 µM

LILPKHSDAD [Peptide P5]
P5 concentration in the P-abs solution (Caco-2 cells; AP 500 μl of 1.0 μg/μl P-tot, BL solution (700 μl) dried and diluted to 100 μl, HPLC-MS/MS m/z 554.8 → 770.0, external calibration with synthetic standard, three injections): 28.64 ± 0.43 ng/µL | P5 share of total peptic peptides absorbed by Caco-2 cells (Caco-2 cells; P-abs sample, HPLC-MS/MS): 11.5%

B1: P5 (peptide)
peptide: LILPKHSDAD
notes: peptic peptide of Lupinus albus β2-conglutin (beta-conglutin precursor); source: synthetic peptide (PRIMM, Milan), >95% pure by HPLC
IC50 [2]: 1.6 µM
